SMILES strings stand for the structures.

The values that follow come from patent US5681954A, “Piperazine derivatives” (Daiichi Pharmaceutical Co., Ltd., priority 1993, dated 1997).

Assay [1] concerns the target T1, Ca/Calmodulin-Dependent PDE (Bos taurus, UniProt P62157).
T1 construct: CaM from bovine brain; from tissue; host or cells: bovine brain
Nature of the assay: Calmodulin (CaM) inhibitory activity: inhibition of CaM-potentiated cyclic nucleotide phosphodiesterase (PDE). The class given is biochemical. The following applies: CaM and PDE from bovine brain, [3H]-cGMP, 30° C., 10 minutes, pH 7.5; read-out: IC50 (concentration showing 50% inhibition of PDE activity potentiated by CaM).

The test system of assay [2] is Nitrogen-induced Hypoxia Model in Mouse. Description: Activity on Nitrogen-induced Hypoxia Model in Mouse. Type of assay: in vivo. As to conditions: 30 mg/kg, p.o., 60 minutes before nitrogen, over control group (100%). The method, then: Nine to ten mice per group were each orally given […] of a test compound. After 60 minutes from the administration, each mouse was put in a 500 ml-volume transparent container having a vent hole; and nitrogen gas was introduced into the container at a rate of 5000 ml/min. The time from the start of nitrogen introduction to respiratory standstill was measured, and a rate of increase of the time over that of a control group (100%) was obtained.

Turning to `COc1ccc(Cn2nc(CCN3CCN(c4cccc(Cl)c4C)CC3)c3cc(OC)c(OC)cc32)cc1OC` [Example 17, 3-(2-(4-(3-Chloro-2-methylphenyl)-1-piperazinyl)ethyl)-5,6-dimethoxy-1-(3,4-dimethoxybenzyl)-1H-indazole], the IC50 in assay [1] was determined as 3.1 µM. Moreover, in assay [2], the “Rate of Increase of Survival Time” value is 19.2%.

On to `COc1cc2[nH]nc(CCN3CCN(c4cccc(Cl)c4C)CC3)c2cc1OC` [Example 81], for which the IC50 in assay [1] came to 9.4 µM.

Take `COc1cc2c(CCN3CCN(c4cccc(Cl)c4C)CC3)nn(Cc3c[nH]cn3)c2cc1OC` [Example 23, 3-(2-(4-(3-Chloro-2-methylphenyl)-1-piperazinyl)ethyl)-5,6-dimethoxy-1-(4-imidazolylmethyl)-1H-indazole]: the IC50 in assay [1] worked out at 5.5 µM.
